According to patent EP2987533B1, “7-substituted piperazin-1-yl fluoroquinolone compounds, their use in the treatment of cancer, pharmaceutical compositions and a method for preparation” (priority 2014, dated 2016):

How the values were obtained:
Test in all cases: NCI five-dose SRB growth assay
Format in all cases: cell-based
MALME-3M = details: Homo sapiens; MALME-3M (Melanoma), 48 h
LOX IMVI = details: Homo sapiens; LOX IMVI (Melanoma), 48 h
PRMI-8226 = details: Homo sapiens; PRMI-8226 (Leukemia), 48 h
COLO 205 = details: Homo sapiens; COLO 205 (Colon Cancer), 48 h
MDA-MB-435 = details: Homo sapiens; MDA-MB-435 (Melanoma), 48 h
SN12C = details: Homo sapiens; SN12C (Renal Cancer), 48 h
TK-10 = details: Homo sapiens; TK-10 (Renal Cancer), 48 h
U251 = details: Homo sapiens, U-251; U251 (CNS Cancer), 48 h
786-0 = details: Homo sapiens; 786-0 (Renal Cancer), 48 h
DU-145 = details: Homo sapiens; DU-145 (Prostate Cancer), 48 h
MDA-MB-468 = details: Homo sapiens; MDA-MB-468 (Breast Cancer), 48 h
NCI-H23 = details: Homo sapiens; NCI-H23 (Non-Small Cell Lung Cancer), 48 h
HCT-15 = details: Homo sapiens; HCT-15 (Colon Cancer), 48 h
OVCAR-5 = details: Homo sapiens; OVCAR-5 (Ovarian Cancer), 48 h
SW-620 = details: Homo sapiens; SW-620 (Colon Cancer), 48 h
K-562 = details: Homo sapiens, K562; K-562 (Leukemia), 48 h
A498 = details: Homo sapiens; A498 (Renal Cancer), 48 h
NCI-H460 = details: Homo sapiens; NCI-H460 (Non-Small Cell Lung Cancer), 48 h
ACHN = details: Homo sapiens; ACHN (Renal Cancer), 48 h
UACC-62 = details: Homo sapiens; UACC-62 (Melanoma), 48 h
CCRF-CEM = details: Homo sapiens; CCRF-CEM (Leukemia), 48 h
OVCAR-8 = details: Homo sapiens; OVCAR-8 (Ovarian Cancer), 48 h
CAKI-1 = details: Homo sapiens; CAKI-1 (Renal Cancer), 48 h
SK-MEL-5 = details: Homo sapiens; SK-MEL-5 (Melanoma), 48 h
NCI-H322M = details: Homo sapiens; NCI-H322M (Non-Small Cell Lung Cancer), 48 h
MDA-MB-231/ATCC = details: Homo sapiens; MDA-MB-231/ATCC (Breast Cancer), 48 h
SNB-19 = details: Homo sapiens; SNB-19 (CNS Cancer), 48 h
UO-31 = details: Homo sapiens; UO-31 (Renal Cancer), 48 h
MCF7 = details: Homo sapiens; MCF7 (Breast Cancer), 48 h
HL-60(TB) = details: Homo sapiens; HL-60(TB) (Leukemia), 48 h
NCI-H522 = details: Homo sapiens; NCI-H522 (Non-Small Cell Lung Cancer), 48 h
IGROV1 = details: Homo sapiens, IGROV-1; IGROV1 (Ovarian Cancer), 48 h
A549/ATCC = details: Homo sapiens; A549/ATCC (Non-Small Cell Lung Cancer), 48 h
HCC-2998 = details: Homo sapiens; HCC-2998 (Colon Cancer), 48 h
BT-549 = details: Homo sapiens; BT-549 (Breast Cancer), 48 h
HCT-116 = details: Homo sapiens; HCT-116 (Colon Cancer), 48 h
UACC-257 = details: Homo sapiens; UACC-257 (Melanoma), 48 h
SK-OV-3 = details: Homo sapiens; SK-OV-3 (Ovarian Cancer), 48 h
SNB-75 = details: Homo sapiens; SNB-75 (CNS Cancer), 48 h

SMILES: O=C(O)c1cn(C2CC2)c2cc(N3CCN(S(=O)(=O)c4ccc(Cl)c(Cl)c4)CC3)c(F)cc2c1=O [Compound 3b]
- GI50 (MALME-3M): 2300 nM
- GI50 (LOX IMVI): 1440 nM
- GI50 (PRMI-8226): 2530 nM
- GI50 (COLO 205): 3500 nM
- GI50 (MDA-MB-435): 2970 nM
- GI50 (SN12C): 2970 nM
- GI50 (TK-10): 4310 nM
- GI50 (U251): 3330 nM
- GI50 (786-0): 4020 nM
- GI50 (DU-145): 4310 nM
- GI50 (MDA-MB-468): 2250 nM
- GI50 (NCI-H23): 2900 nM
- GI50 (HCT-15): 3300 nM
- GI50 (OVCAR-5): 4140 nM
- GI50 (SW-620): 4050 nM
- GI50 (K-562): 3920 nM
- GI50 (A498): 2910 nM
- GI50 (NCI-H460): 3660 nM
- GI50 (ACHN): 3100 nM
- GI50 (UACC-62): 1750 nM
- GI50 (CCRF-CEM): 2610 nM
- GI50 (OVCAR-8): 3330 nM
- GI50 (CAKI-1): 2710 nM
- GI50 (SK-MEL-5): 2040 nM
- GI50 (NCI-H322M): 3240 nM
- GI50 (MDA-MB-231/ATCC): 2140 nM
- GI50 (SNB-19): 3250 nM
- GI50 (UO-31): 2580 nM
- GI50 (MCF7): 2840 nM
- GI50 (HL-60(TB)): 2040 nM
- GI50 (NCI-H522): 1990 nM
- GI50 (IGROV1): 2730 nM
- GI50 (A549/ATCC): 3080 nM
- GI50 (HCC-2998): 4470 nM
- GI50 (BT-549): 2980 nM
- GI50 (HCT-116): 3860 nM
- GI50 (UACC-257): 2480 nM

SMILES: CCn1cc(C(=O)O)c(=O)c2cc(F)c(N3CCN(S(=O)(=O)c4ccc(Cl)cc4Cl)CC3)cc21 [Compound 2a]
- GI50 (MALME-3M): 1950 nM
- GI50 (LOX IMVI): 1480 nM
- GI50 (PRMI-8226): 2550 nM
- GI50 (COLO 205): 2440 nM
- GI50 (MDA-MB-435): 1970 nM
- GI50 (SN12C): 2770 nM
- GI50 (TK-10): 4020 nM
- GI50 (U251): 3300 nM
- GI50 (786-0): 3190 nM
- GI50 (DU-145): 2810 nM
- GI50 (MDA-MB-468): 1980 nM
- GI50 (NCI-H23): 2330 nM
- GI50 (HCT-15): 2820 nM
- GI50 (OVCAR-5): 3430 nM
- GI50 (SW-620): 3910 nM
- GI50 (K-562): 4000 nM
- GI50 (A498): 2990 nM
- GI50 (NCI-H460): 3130 nM
- GI50 (ACHN): 2620 nM
- GI50 (UACC-62): 1610 nM
- GI50 (CCRF-CEM): 3030 nM
- GI50 (OVCAR-8): 3300 nM
- GI50 (CAKI-1): 2010 nM
- GI50 (SK-OV-3): 3000 nM
- GI50 (SK-MEL-5): 1870 nM
- GI50 (NCI-H322M): 2860 nM
- GI50 (MDA-MB-231/ATCC): 1880 nM
- GI50 (SNB-19): 3070 nM
- GI50 (UO-31): 2200 nM
- GI50 (MCF7): 2950 nM
- GI50 (HL-60(TB)): 2220 nM
- GI50 (NCI-H522): 1810 nM
- GI50 (IGROV1): 2330 nM
- GI50 (A549/ATCC): 2890 nM
- GI50 (HCC-2998): 2290 nM
- GI50 (BT-549): 2640 nM
- GI50 (HCT-116): 3560 nM
- GI50 (UACC-257): 2650 nM

SMILES: Cc1cc(C)c(S(=O)(=O)N2CCN(c3cc4c(cc3F)c(=O)c(C(=O)O)cn4C3CC3)CC2)c(C)c1 [Compound 6b]
- GI50 (LOX IMVI): 1420 nM
- GI50 (PRMI-8226): 2340 nM
- GI50 (COLO 205): 3400 nM
- GI50 (SN12C): 2610 nM
- GI50 (TK-10): 4570 nM
- GI50 (U251): 2890 nM
- GI50 (786-0): 4080 nM
- GI50 (DU-145): 3400 nM
- GI50 (MDA-MB-468): 1970 nM
- GI50 (NCI-H23): 3410 nM
- GI50 (HCT-15): 2550 nM
- GI50 (SW-620): 3400 nM
- GI50 (A498): 2370 nM
- GI50 (NCI-H460): 3040 nM
- GI50 (SNB-75): 2230 nM
- GI50 (ACHN): 2460 nM
- GI50 (UACC-62): 2430 nM
- GI50 (CCRF-CEM): 2800 nM
- GI50 (OVCAR-8): 2870 nM
- GI50 (CAKI-1): 1800 nM
- GI50 (SK-OV-3): 3020 nM
- GI50 (SK-MEL-5): 3030 nM
- GI50 (NCI-H322M): 5190 nM
- GI50 (MDA-MB-231/ATCC): 2030 nM
- GI50 (SNB-19): 2560 nM
- GI50 (UO-31): 1960 nM
- GI50 (MCF7): 2590 nM
- GI50 (NCI-H522): 2800 nM
- GI50 (IGROV1): 2660 nM
- GI50 (A549/ATCC): 2230 nM
- GI50 (HCC-2998): 5370 nM
- GI50 (BT-549): 3340 nM
- GI50 (HCT-116): 2980 nM
- GI50 (UACC-257): > 100000 nM

SMILES: CCn1cc(C(=O)O)c(=O)c2cc(F)c(N3CCN(S(=O)(=O)c4ccc(Cl)cc4)CC3)cc21 [Compound 1a]
- GI50 (MALME-3M): 1990 nM
- GI50 (LOX IMVI): 2400 nM
- GI50 (PRMI-8226): 3080 nM
- GI50 (COLO 205): 2620 nM
- GI50 (MDA-MB-435): 2470 nM
- GI50 (SN12C): 2920 nM
- GI50 (TK-10): 3730 nM
- GI50 (U251): 3100 nM
- GI50 (786-0): 3770 nM
- GI50 (DU-145): 4110 nM
- GI50 (MDA-MB-468): 2100 nM
- GI50 (NCI-H23): 2670 nM
- GI50 (HCT-15): 3620 nM
- GI50 (OVCAR-5): 4250 nM
- GI50 (SW-620): 3430 nM
- GI50 (K-562): 2910 nM
- GI50 (A498): 1810 nM
- GI50 (NCI-H460): 3160 nM
- GI50 (SNB-75): 2600 nM
- GI50 (ACHN): 3090 nM
- GI50 (UACC-62): 2020 nM
- GI50 (CCRF-CEM): 2930 nM
- GI50 (OVCAR-8): 2800 nM
- GI50 (CAKI-1): 2750 nM
- GI50 (SK-OV-3): 3280 nM
- GI50 (SK-MEL-5): 1800 nM
- GI50 (MDA-MB-231/ATCC): 2510 nM
- GI50 (SNB-19): 3970 nM
- GI50 (UO-31): 2070 nM
- GI50 (MCF7): 2970 nM
- GI50 (HL-60(TB)): 2180 nM
- GI50 (NCI-H522): 1730 nM
- GI50 (IGROV1): 3140 nM
- GI50 (A549/ATCC): 2810 nM
- GI50 (HCC-2998): 4100 nM
- GI50 (BT-549): 2440 nM
- GI50 (HCT-116): 3180 nM
- GI50 (UACC-257): 2160 nM

SMILES: CCn1cc(C(=O)O)c(=O)c2cc(F)c(N3CCN(S(=O)(=O)c4cccc5ccccc45)CC3)cc21 [Compound 7a]
- GI50 (MALME-3M): 2830 nM
- GI50 (LOX IMVI): 1630 nM
- GI50 (PRMI-8226): 2790 nM
- GI50 (COLO 205): 2020 nM
- GI50 (MDA-MB-435): 3130 nM
- GI50 (SN12C): 2590 nM
- GI50 (TK-10): 7600 nM
- GI50 (U251): 3290 nM
- GI50 (786-0): 4500 nM
- GI50 (DU-145): 3970 nM
- GI50 (MDA-MB-468): 2520 nM
- GI50 (NCI-H23): 3130 nM
- GI50 (HCT-15): 3150 nM
- GI50 (OVCAR-5): 3380 nM
- GI50 (SW-620): 3570 nM
- GI50 (K-562): 3930 nM
- GI50 (A498): 2740 nM
- GI50 (NCI-H460): 3430 nM
- GI50 (SNB-75): 1890 nM
- GI50 (ACHN): 2880 nM
- GI50 (UACC-62): 2250 nM
- GI50 (CCRF-CEM): 3670 nM
- GI50 (OVCAR-8): 3090 nM
- GI50 (CAKI-1): 2330 nM
- GI50 (SK-OV-3): 3110 nM
- GI50 (SK-MEL-5): 2240 nM
- GI50 (NCI-H322M): 2600 nM
- GI50 (MDA-MB-231/ATCC): 1910 nM
- GI50 (SNB-19): 3470 nM
- GI50 (UO-31): 2210 nM
- GI50 (MCF7): 2720 nM
- GI50 (HL-60(TB)): 2580 nM
- GI50 (NCI-H522): 2780 nM
- GI50 (IGROV1): 2470 nM
- GI50 (A549/ATCC): 2870 nM
- GI50 (HCC-2998): 4260 nM
- GI50 (BT-549): 3700 nM
- GI50 (HCT-116): 3880 nM
- GI50 (UACC-257): 2720 nM
